Patent US10953012B2, “Heterocyclic compounds for the inhibition of pask” (BioEnergenix LLC, priority 2011, dated 2021)

Experiments:
CK2a2 = CK2a2 (Homo sapiens (Human), UniProt P19784); test: Biochemical Assay for CK2 Activity; conditions: 33P-ATP radiochemical assay; read-out: IC50 CK2 a2
Protocol: Biochemical Assay for CK2 Activity
Purified CK2a2 (NP_001887; human full-length protein, GST tagged) from insect cells (final concentration 1.2 nM) is added to freshly prepared Base Reaction Buffer containing 20 mM Hepes (pH 7.5), 10 mM MgCl2, 1 mM EGTA, 0.02% Brij35, 0.02 mg/ml BSA, 0.1 mM Na3VO4, 2 mM DTT, 1% DMSO and CK2 sub [RRRDDDSDDD] (20 μM final). Test compounds in DMSO are then added and the mixture, followed by delivery of ^33P-ATP (specific activity 0.01 μCi/μl final) to initiate the reaction. The kinase reaction is incubated for 120 min at room temperature. The entire reaction mixture is washed through onto a P81 Phosphocellulose paper and washed three times for 10 minutes in 75 mM phosphoric acid and once in methanol prior to drying and scintillation counting.

PASK = PASK (Homo sapiens (Human), UniProt Q96RG2); test: PAS Kinase FRET Assay; type: biochemical; conditions: TR-FRET assay; read-out: IC50 Kinase Domain
Summary of the method: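 TR-FRET read-out (665/615 nm) of ULight-peptide phosphorylation by PASK, detected with Eu-labelled anti-phospho antibody. Compound, kinase and substrate/ATP reacted 2 h at 25 °C in the dark in 50 mM HEPES, 10 mM MgCl2, 1 mM EGTA, 0.01% Tween-20, 2 mM DTT. Eleven-point dilution series made at 4× final.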

CK2a2, sequence (P19784 whole entry): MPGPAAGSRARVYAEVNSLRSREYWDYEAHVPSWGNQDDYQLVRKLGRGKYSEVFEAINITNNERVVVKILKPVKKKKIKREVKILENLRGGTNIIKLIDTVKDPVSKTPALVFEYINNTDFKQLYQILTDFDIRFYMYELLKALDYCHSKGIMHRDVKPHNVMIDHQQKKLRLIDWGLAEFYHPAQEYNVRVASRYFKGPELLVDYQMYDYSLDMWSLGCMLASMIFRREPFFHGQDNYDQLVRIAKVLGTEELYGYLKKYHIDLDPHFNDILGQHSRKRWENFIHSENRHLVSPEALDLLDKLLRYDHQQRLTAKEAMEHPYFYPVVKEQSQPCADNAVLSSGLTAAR
PASK, sequence (Q96RG2 999-1251): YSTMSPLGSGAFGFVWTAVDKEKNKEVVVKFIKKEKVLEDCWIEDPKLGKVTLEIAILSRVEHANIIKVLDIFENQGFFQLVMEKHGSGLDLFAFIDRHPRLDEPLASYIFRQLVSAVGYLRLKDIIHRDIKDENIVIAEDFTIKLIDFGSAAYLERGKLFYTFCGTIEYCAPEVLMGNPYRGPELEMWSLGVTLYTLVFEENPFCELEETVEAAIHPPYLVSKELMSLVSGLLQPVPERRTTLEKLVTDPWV

Row | IC50 (CK2a2) [µM] | IC50 (PASK) [µM] | Compound
1 | ≤ 10 | ≤ 10 | O=c1cc(-c2ccc3c(c2)OCCO3)[nH]c2c(-c3cccnc3)c(O)nn12 [Example 101, 5-(2,3-Dihydrobenzo[b][1,4]dioxin-6-yl)-2-hydroxy-3-(pyridin-3-yl)pyrazolo[1,5-a]pyrimidin-7(4H)-one]
2 | ≤ 10 |  | O=c1cc(-c2cc3ccccc3o2)[nH]c2c(-c3ccccn3)cnn12 [Example 149, 5-(Benzofuran-2-yl)-3-(pyridin-2-yl)pyrazolo[1,5-a]pyrimidin-7(4H)-one]
3 |  | ≤ 10 | Cc1nn2c(=O)cc(-c3ccc4c(c3C)OCO4)[nH]c2c1-c1ccccn1 [Example 232, 2-Methyl-5-(4-methylbenzo[d][1,3]dioxol-5-yl)-3-(pyridin-2-yl)pyrazolo[1,5-a]pyrimidin-7(4H)-one]
4 |  | ≤ 10 | COc1c(-c2cc(=O)n3ncc(-c4ccccn4)c3[nH]2)ccc2c1OCO2 [Example 233, 5-(4-Methoxybenzo[d][1,3]dioxol-5-yl)-3-(pyridin-2-yl)pyrazolo[1,5-a]pyrimidin-7(4H)-one]
5 |  | ≤ 10 | Cc1cc2[nH]nnc2cc1-c1cc(=O)n2ncc(-c3ccccn3)c2[nH]1 [Example 236, 5-(6-Methyl-1H-benzo[d][1,2,3]triazol-5-yl)-3-(pyridin-2-yl)pyrazolo[1,5-a]pyrimidin-7(4H)-one]
6 |  | ≤ 10 | Cc1cc2[nH]nnc2cc1-c1cc(=O)n2nc(N)c(-c3ccccn3)c2[nH]1 [Example 238, 2-Amino-5-(6-methyl-1H-benzo[d][1,2,3]triazol-5-yl)-3-(pyridin-2-yl)pyrazolo[1,5-a]pyrimidin-7(4H)-one]
7 |  | ≤ 10 | Cc1cc2[nH]nnc2cc1-c1cc(=O)n2nc(O)c(-c3ccccn3)c2[nH]1 [Example 239, 2-Hydroxy-5-(6-methyl-1H-benzo[d][1,2,3]triazol-5-yl)-3-(pyridin-2-yl)pyrazolo[1,5-a]pyrimidin-7(4H)-one]
8 |  | ≤ 10 | Cc1c(-c2cc(=O)n3nc(N)c(-c4ccccn4)c3[nH]2)ccc2[nH]nnc12 [Example 240, 2-Amino-5-(4-methyl-1H-benzo[d][1,2,3]triazol-5-yl)-3-(pyridin-2-yl)pyrazolo[1,5-a]pyrimidin-7(4H)-one]
9 |  | ≤ 10 | Cc1c(-c2cc(=O)n3nc(O)c(-c4ccccn4)c3[nH]2)ccc2[nH]nnc12 [Example 241, 2-Hydroxy-5-(4-methyl-1H-benzo[d][1,2,3]triazol-5-yl)-3-(pyridin-2-yl)pyrazolo[1,5-a]pyrimidin-7(4H)-one]
10 |  | ≤ 10 | Cc1nn2c(=O)cc(-c3ccc4[nH]nnc4c3C)[nH]c2c1-c1ccccn1 [Example 242, 2-Methyl-5-(4-methyl-1H-benzo[d][1,2,3]triazol-5-yl)-3-(pyridin-2-yl)pyrazolo[1,5-a]pyrimidin-7(4H)-one]
11 |  | ≤ 10 | COc1cc2[nH]nnc2cc1-c1cc(=O)n2nc(O)c(-c3ccccn3)c2[nH]1 [Example 244, 2-Hydroxy-5-(6-methoxy-1H-benzo[d][1,2,3]triazol-5-yl)-3-(pyridin-2-yl)pyrazolo[1,5-a]pyrimidin-7(4H)-one]
12 |  | ≤ 10 | COc1c(-c2cc(=O)n3nc(N)c(-c4ccccn4)c3[nH]2)ccc2[nH]nnc12 [Example 246, 2-Amino-5-(4-methoxy-1H-benzo[d][1,2,3]triazol-5-yl)-3-(pyridin-2-yl)pyrazolo[1,5-a]pyrimidin-7(4H)-one]
13 |  | ≤ 10 | COc1c(-c2cc(=O)n3nc(O)c(-c4ccccn4)c3[nH]2)ccc2[nH]nnc12 [Example 247, 2-Hydroxy-5-(4-methoxy-1H-benzo[d][1,2,3]triazol-5-yl)-3-(pyridin-2-yl)pyrazolo[1,5-a]pyrimidin-7(4H)-one]
14 |  | ≤ 10 | COc1c(-c2cc(=O)n3nc(C)c(-c4ccccn4)c3[nH]2)ccc2[nH]nnc12 [Example 248, 5-(4-Methoxy-1H-benzo[d][1,2,3]triazol-5-yl)-2-methyl-3-(pyridin-2-yl)pyrazolo[1,5-a]pyrimidin-7(4H)-one]
15 |  | ≤ 10 | CC(C)Oc1c(-c2cc(=O)n3ncc(-c4ccccn4)c3[nH]2)ccc2c1OCO2 [Example 250, 5-(4-Isopropoxybenzo[d][1,3]dioxol-5-yl)-3-(pyridin-2-yl)pyrazolo[1,5-a]pyrimidin-7(4H)-one]
16 |  | ≤ 10 | Cc1nn2c(=O)cc(-c3ccc4c(c3OC(C)C)OCO4)[nH]c2c1-c1ccccn1 [Example 251, 5-(4-Isopropoxybenzo[d][1,3]dioxol-5-yl)-2-methyl-3-(pyridin-2-yl)pyrazolo[1,5-a]pyrimidin-7(4H)-one]
17 |  | ≤ 10 | O=c1cc(-c2ccc(-c3nnco3)cc2)[nH]c2c(-c3ccccn3)cnn12 [Example 255, 5-(4-(1,3,4-Oxadiazol-2-yl)phenyl)-3-(pyridin-2-yl)pyrazolo[1,5-a]pyrimidin-7(4H)-one]

The remaining lines, values behind:

Row | Compound | IC50 (CK2a2) [µM] | IC50 (PASK) [µM]
18 | COc1ccc(-c2cc(=O)n3ncc(-c4ccc(F)cc4)c3[nH]2)cc1 [Example 53, 3-(4-Fluorophenyl)-5-(4-methoxyphenyl)pyrazolo[1,5-a]pyrimidin-7(4H)-one] | ≤ 10 | 
19 | Cc1nn2c(=O)cc(-c3ccc4c(c3)OCCO4)[nH]c2c1-c1ccccc1 [Example 54, 5-(2,3-Dihydrobenzo[b][1,4]dioxin-6-yl)-2-methyl-3-phenylpyrazolo[1,5-a]pyrimidin-7(4H)-one] | ≤ 10 | 
20 | Cc1nn2c(=O)cc(-c3ccc4c(c3)CCO4)[nH]c2c1-c1ccccc1 [Example 55, 5-(2,3-Dihydrobenzofuran-5-yl)-2-methyl-3-phenylpyrazolo[1,5-a]pyrimidin-7(4H)-one] | ≤ 10 | 
21 | COc1ccc(-c2cc(=O)n3ncc(-c4ccccn4)c3[nH]2)cc1 [Example 56, 5-(4-Methoxyphenyl)-3-(pyridin-2-yl)pyrazolo[1,5-a]pyrimidin-7(4H)-one] | ≤ 10 | 
22 | Cc1nn2c(=O)cc(-c3ccccc3)[nH]c2c1Cc1ccc(Cl)cc1 [Example 61] | ≤ 10 | 
23 | Cc1nn2c(=O)cc(-c3ccc(OC(C)C)cc3)[nH]c2c1Cc1ccc(Cl)cc1 [Example 63, 3-(4-Chlorobenzyl)-5-(4-isopropoxyphenyl)-2-methylpyrazolo[1,5-a]pyrimidin-7(4H)-one] | ≥ 10 | 
24 | COc1cccc(-c2cc(=O)n3nc(C)c(Cc4ccc(Cl)cc4)c3[nH]2)c1 [Example 64, 3-(4-Chlorobenzyl)-5-(3-methoxyphenyl)-2-methylpyrazolo[1,5-a]pyrimidin-7(4H)-one] | ≥ 10 | 
25 | COC(=O)c1ccc(-c2cc(=O)n3nc(C)c(Cc4ccc(Cl)cc4)c3[nH]2)cc1 [Example 65, Methyl 4-(3-(4-chlorobenzyl)-2-methyl-7-oxo-4,7-dihydropyrazolo[1,5-a]pyrimidin-5-yl)benzoate] | ≥ 10 | 
26 | Cc1nn2c(=O)cc(-c3ccc(C(N)=O)cc3)[nH]c2c1Cc1ccc(Cl)cc1 [Example 66, 4-(3-(4-Chlorobenzyl)-2-methyl-7-oxo-4,7-dihydropyrazolo[1,5-a]pyrimidin-5-yl)benzamide] | ≥ 10 | 
27 | Cc1nn2c(=O)cc(-c3ccc(C(F)(F)F)cc3)[nH]c2c1Cc1ccc(Cl)cc1 [Example 67, 3-(4-Chlorobenzyl)-2-methyl-5-(4-(trifluoromethyl)phenyl)pyrazolo[1,5-a]pyrimidin-7(4H)-one] | ≥ 10 | 
28 | COc1ccc(-c2cc(=O)n3nc(C)c(Cc4ccccc4)c3[nH]2)cc1OC [Example 68, 3-Benzyl-5-(3,4-dimethoxyphenyl)-2-methylpyrazolo[1,5-a]pyrimidin-7(4H)-one] | ≥ 10 | 
29 | COc1ccc(-c2cc(=O)n3nc(C)c(Cc4ccc(Cl)cc4)c3[nH]2)cc1OC [Example 69, 3-(4-Chlorobenzyl)-5-(3,4-dimethoxyphenyl)-2-methylpyrazolo[1,5-a]pyrimidin-7(4H)-one] | ≥ 10 | 
30 | COc1ccc(-c2cc(=O)n3nc(C)c(Cc4ccccc4Cl)c3[nH]2)cc1 [Example 70, 3-(2-Chlorobenzyl)-5-(4-methoxyphenyl)-2-methylpyrazolo[1,5-a]pyrimidin-7-(4H)-one] | ≥ 10 | ≤ 10
31 | O=c1cc(-c2ccc3c(c2)OCCO3)[nH]c2c(-c3ccc(N4CCCCC4)nc3)cnn12 [Example 89, 5-(2,3-Dihydrobenzo[b][1,4]dioxin-6-yl)-3-(6-(piperidin-1-yl)pyridin-3-yl)pyrazolo[1,5-a]pyrimidin-7(4H)-one] | ≤ 10 | ≤ 10
32 | O=c1cc(-c2ccc3c(c2)OCCO3)[nH]c2c(-c3cccc(F)c3)cnn12 [Example 91, 5-(2,3-Dihydrobenzo[b][1,4]dioxin-6-yl)-3-(3-fluorophenyl)pyrazolo[1,5-a]pyrimidin-7(4H)-one] | ≤ 10 | ≤ 10
33 | CNC(=O)Oc1ccc(-c2cc(=O)n3nc(C)c(-c4ccccn4)c3[nH]2)cc1 [Example 252, 4-(2-Methyl-7-oxo-3-(pyridin-2-yl)-4,7-dihydropyrazolo[1,5-a]pyrimidin-5-yl)phenyl methylcarbamate] |  | ≤ 10
34 | CNC(=O)Oc1ccc(-c2cc(=O)n3ncc(-c4ccccn4)c3[nH]2)cc1 [Example 253, 4-(7-Oxo-3-(pyridin-2-yl)-4,7-dihydropyrazolo[1,5-a]pyrimidin-5-yl)phenyl methylcarbamate] |  | ≤ 10
